The record followed here is US10654832B2, “3-(benzoimidazol-2-YL)-indazole inhibitors of the Wnt signaling pathway and therapeutic uses thereof” (Samumed, LLC, priority 2013, dated 2020).

This assay has as its system Wnt activity (wnt-responsive SP5 promoter luciferase reporter in SW480 cells). Kind of assay: Wnt activity reporter assay (SP5 promoter-firefly luciferase in SW480 cells). It counts as cell-based. Particulars: Homo sapiens; SW480 colon cancer cells with SP5 promoter luciferase reporter; 24 h after compound addition; half-log dilutions, three micromolar top concentration; normalized to DMSO; read-out: Wnt inhibition. The text has this:
The above synthesized compounds were screened using the assay procedure for Wnt activity described below.
Reporter cell lines were generated by stably transducing cells of cancer cell lines (e.g., colon cancer) with a lentiviral construct that include a wnt-responsive promoter driving expression of the firefly luciferase gene.
Lentiviral constructs were made in which the SP5 promoter, a promoter having eight TCF/LEF binding sites derived from the SP5 promoter, was linked upstream of the firefly luciferase gene. The lentiviral constructs included a hygromycin resistance gene as a selectable marker. The SP5 promoter construct was used to transduce SW480 cells, a colon cancer cell line having a mutated APC gene that generates a truncated APC protein, leading to de-regulated accumulation of β-catenin.
Cultured SW480 cells bearing a reporter construct were distributed at approximately 10,000 cells per well into 384 well multiwell plates. Compounds were then added to the wells in half-log dilutions using a three micromolar top concentration. A series of control wells for each cell type received only buffer and compound solvent. Twenty-four hours after the addition of compound, reporter activity for luciferases was assayed, for example, by addition of the BrightGlo luminescence reagent (Promega) and the Victor3 plate reader (Perkin Elmer). Readings were normalized to DMSO only treated cells, and normalized activities were then used for the IC50 calculations.
In general terms: A reporter such as luciferase makes a cellular process visible.
As for `CCC(=O)Nc1cncc(-c2ccc3[nH]nc(-c4nc5c(-c6cccc(F)c6)cccc5[nH]4)c3c2)c1` [Compound 1, N-(5-(3-(4-(3-Fluorophenyl)-1H-benzo[d]imidazol-2-yl)-1H-indazol-5-yl)pyridin-3-yl)propionamide], the IC50 was determined as 2 nM. The same measure for `Fc1cccc(-c2cccc3[nH]c(-c4n[nH]c5ccc(-c6cccnc6)cc45)nc23)c1` [Compound 4, 3-(4-(3-Fluorophenyl)-1H-benzo[d]imidazol-2-yl)-5-(pyridin-3-yl)-1H-indazole]: 4 nM; for `Cc1ccncc1-c1ccc2[nH]nc(-c3nc4c(-c5cccc(F)c5)cccc4[nH]3)c2c1` [Compound 5, 3-(4-(3-Fluorophenyl)-1H-benzo[d]imidazol-2-yl)-5-(4-methylpyridin-3-yl)-1H-indazole]: 34 nM; for `CN(C)c1cncc(-c2ccc3[nH]nc(-c4nc5c(-c6cccc(F)c6)cccc5[nH]4)c3c2)c1` [Compound 7, 5-(3-(4-(3-Fluorophenyl)-1H-benzo[d]imidazol-2-yl)-1H-indazol-5-yl)-N,N-dimethylpyridin-3-amine]: 8 nM. On to `CC(C)C(=O)Nc1cncc(-c2ccc3[nH]nc(-c4nc5c(-c6cccc(F)c6)cccc5[nH]4)c3c2)c1` [Compound 9, N-(5-(3-(4-(3-Fluorophenyl)-1H-benzo[d]imidazol-2-yl)-1H-indazol-5-yl)pyridin-3-yl)isobutyramide], for which the IC50 stood at 250 nM. Take `O=C(Cc1ccccc1)Nc1cncc(-c2ccc3[nH]nc(-c4nc5c(-c6cccc(F)c6)cccc5[nH]4)c3c2)c1` [Compound 10, N-(5-(3-(4-(3-Fluorophenyl)-1H-benzo[d]imidazol-2-yl)-1H-indazol-5-yl)pyridin-3-yl)-2-phenylacetamide]: the IC50 is 69 nM. On to `CN(C)Cc1cncc(-c2ccc3[nH]nc(-c4nc5c(-c6cccc(F)c6)cccc5[nH]4)c3c2)c1` [Compound 13, 1-(5-(3-(4-(3-Fluorophenyl)-1H-benzo[d]imidazol-2-yl)-1H-indazol-5-yl)pyridin-3-yl)-N,N-dimethylmethanamine], for which the IC50 was 11 nM. The same measure for `CC(C)(C)CC(=O)Nc1cncc(-c2ccc3[nH]nc(-c4nc5c(-c6cccc(F)c6)cccc5[nH]4)c3c2)c1` [Compound 16, N-(5-(3-(4-(3-Fluorophenyl)-1H-benzo[d]imidazol-2-yl)-1H-indazol-5-yl)pyridin-3-yl)-3,3-dimethylbutanamide]: 31 nM; for `CCCCC(=O)Nc1cncc(-c2ccc3[nH]nc(-c4nc5c(-c6cccc(F)c6)cccc5[nH]4)c3c2)c1` [Compound 18, N-(5-(3-(4-(3-Fluorophenyl)-1H-benzo[d]imidazol-2-yl)-1H-indazol-5-yl)pyridin-3-yl)pentanamide]: 30 nM; for `O=C(Nc1cncc(-c2ccc3[nH]nc(-c4nc5c(-c6cccc(F)c6)cccc5[nH]4)c3c2)c1)C1CC1` [Compound 19, N-(5-(3-(4-(3-Fluorophenyl)-1H-benzo[d]imidazol-2-yl)-1H-indazol-5-yl)pyridin-3-yl)cyclopropanecarboxamide]: 5 nM. The value for `O=C(Nc1cncc(-c2ccc3[nH]nc(-c4nc5c(-c6cccc(F)c6)cccc5[nH]4)c3c2)c1)C1CCCC1` [Compound 21, N-(5-(3-(4-(3-Fluorophenyl)-1H-benzo[d]imidazol-2-yl)-1H-indazol-5-yl)pyridin-3-yl)cyclopentanecarboxamide] was 50 nM.

In the case of `O=C(Nc1cncc(-c2ccc3[nH]nc(-c4nc5c(-c6cccc(F)c6)cccc5[nH]4)c3c2)c1)C1CCCCC1` [Compound 22, N-(5-(3-(4-(3-Fluorophenyl)-1H-benzo[d]imidazol-2-yl)-1H-indazol-5-yl)pyridin-3-yl)cyclohexanecarboxamide], the IC50 is 180 nM. The value for `CC(C)CC(=O)Nc1cncc(-c2ccc3[nH]nc(-c4nc5c(-c6ccc(F)cc6)cccc5[nH]4)c3c2)c1` [Compound 26, N-(5-(3-(4-(4-Fluorophenyl)-1H-benzo[d]imidazol-2-yl)-1H-indazol-5-yl)pyridin-3-yl)-3-methylbutanamide] was 179 nM. The value for `Cc1ccncc1-c1ccc2[nH]nc(-c3nc4c(-c5ccc(F)cc5)cccc4[nH]3)c2c1` [Compound 29, 3-(4-(4-Fluorophenyl)-1H-benzo[d]imidazol-2-yl)-5-(4-methylpyridin-3-yl)-1H-indazole] was 100 nM; that for `CC(C)(C)C(=O)Nc1cncc(-c2ccc3[nH]nc(-c4nc5c(-c6ccc(F)cc6)cccc5[nH]4)c3c2)c1` [Compound 32, N-(5-(3-(4-(4-Fluorophenyl)-1H-benzo[d]imidazol-2-yl)-1H-indazol-5-yl)pyridin-3-yl)pivalamide] was 35 nM; that for `CC(C)C(=O)Nc1cncc(-c2ccc3[nH]nc(-c4nc5c(-c6ccc(F)cc6)cccc5[nH]4)c3c2)c1` [Compound 33, N-(5-(3-(4-(4-Fluorophenyl)-1H-benzo[d]imidazol-2-yl)-1H-indazol-5-yl)pyridin-3-yl)isobutyramide] was 34 nM.

`O=C(Nc1cncc(-c2ccc3[nH]nc(-c4nc5c(-c6ccc(F)cc6)cccc5[nH]4)c3c2)c1)c1ccccc1` [Compound 35, N-(5-(3-(4-(4-Fluorophenyl)-1H-benzo[d]imidazol-2-yl)-1H-indazol-5-yl)pyridin-3-yl)benzamide]: the IC50 was found to be 161 nM. The same measure for `Fc1ccc(-c2cccc3[nH]c(-c4n[nH]c5ccc(-c6cncc(CN7CCCC7)c6)cc45)nc23)cc1` [Compound 38, 3-(4-(4-Fluorophenyl)-1H-benzo[d]imidazol-2-yl)-5-(5-(pyrrolidin-1-ylmethyl)pyridin-3-yl)-1H-indazole]: 153 nM; for `CCCC(=O)Nc1cncc(-c2ccc3[nH]nc(-c4nc5c(-c6ccc(F)cc6)cccc5[nH]4)c3c2)c1` [Compound 41, N-(5-(3-(4-(4-Fluorophenyl)-1H-benzo[d]imidazol-2-yl)-1H-indazol-5-yl)pyridin-3-yl)butyramide]: 15 nM. With `CCCCC(=O)Nc1cncc(-c2ccc3[nH]nc(-c4nc5c(-c6ccc(F)cc6)cccc5[nH]4)c3c2)c1` [Compound 42, N-(5-(3-(4-(4-Fluorophenyl)-1H-benzo[d]imidazol-2-yl)-1H-indazol-5-yl)pyridin-3-yl)pentanamide], the IC50 worked out at 33 nM. The value for `O=C(Nc1cncc(-c2ccc3[nH]nc(-c4nc5c(-c6ccc(F)cc6)cccc5[nH]4)c3c2)c1)C1CC1` [Compound 43, N-(5-(3-(4-(4-Fluorophenyl)-1H-benzo[d]imidazol-2-yl)-1H-indazol-5-yl)pyridin-3-yl)cyclopropanecarboxamide] was 43 nM; that for `O=C(Nc1cncc(-c2ccc3[nH]nc(-c4nc5c(-c6ccc(F)cc6)cccc5[nH]4)c3c2)c1)C1CCC1` [Compound 44, N-(5-(3-(4-(4-Fluorophenyl)-1H-benzo[d]imidazol-2-yl)-1H-indazol-5-yl)pyridin-3-yl)cyclobutanecarboxamide] was 140 nM. Turning to `O=C(Nc1cncc(-c2ccc3[nH]nc(-c4nc5c(-c6ccc(F)cc6)cccc5[nH]4)c3c2)c1)C1CCCC1` [Compound 45, N-(5-(3-(4-(4-Fluorophenyl)-1H-benzo[d]imidazol-2-yl)-1H-indazol-5-yl)pyridin-3-yl)cyclopentanecarboxamide], the IC50 is 110 nM.
